Experimental data from patent publication US5663205A, “Pharmaceutical composition for use in glaucoma treatment” (Senju Pharmaceutical Co. Ltd., priority 1992, dated 1997).

How the values were obtained:
[1] = Test Example 6: freeze-thaw test, precipitation of crystals; assay type: physicochemical; details: 0.5% aqueous solution (pH 5.5), left standing at room temperature
Protocol: Investigation on the Processing of Amosulalol Hydrochloride into Ophthalmic Solution: Freeze-Thaw Test (Investigation on a Stabilizing Agent for the Ophthalmic Solution of Amosulalol Hydrochloride)
Consequently, investigation was conducted on a stabilizing agent intended for use in the case of such freezing.
0.5% aqueous solution of amosulalol hydrochloride (pH 5.5), after being admixed with each of the stabilizing agents (Nos. 1 to 5) as described in Table 1 shown below, was filled into a glass ampoule of 5 ml capacity, frozen at -30° C. and left standing at room temperature to conduct inspection for the presence of crystals in it.

[2] = Stability of aqueous solution against heat and light; assay type: physicochemical
β-adrenergic = details: cited from earlier work
pupil diameter [3] = test: Test Example 1 (2): pupil diameter, pigmented rabbits; assay type: in vivo, pigmented rabbits (Dutch belted rabbits); details: treated eyes, 0.5 to 6 hours after topical application
Protocol: Male pigmented rabbits (Dutch belted rabbits) weighing about 2 kg, after having been confirmed to be free from ocular abnormalities; were bred in a breeding room maintained at a temperature of 24± 4° C. and at a relative humidity of 55± 15%, while they were given solid food (Labo RG-RO manufactured by Nihon Nohsan Kogyo K.K.) at a daily rate of 100 g per rabbit and allowed free access to tap water as drinking water. As a test drug, amosulalol hydrochloride was processed into 0.05% (hereinafter, the term "%" is to be understood to designate "w/v %") and 1.0% aqueous solutions which were used in the test, and 0.5% timolol maleate ophthalmic solution [Timoptol (registered trademark): Ban-yu Pharmaceutical Co.] and physiological saline were used as a positive control drug and a control substance, respectively. (2) Measurement of pupil diameter: With each of the rabbits as used under the above item (1), pupil diameter was measured for both eyes using a micrometer caliper, before instillation and 0.5, 1, 2, 3, 4, and 6 hours after topical application of the individual test drugs and physiological saline, respectively.

α-adrenergic = details: cited from earlier work
[4] = Test Example 7 (2)(a),(b): general conditions and body weight, 28 days instillation; assay type: in vivo, Japanese white rabbits; details: 1% and 0.5% ophthalmic solutions, 4 times a day
Protocol: (2) Ocular local toxicity test in rabbits of 1.0% and 0.5% ophthalmic solutions of amosulalol hydrochloride by consecutive instillation for 28 days: With 15 male Japanese white rabbits divided into 3 groups each consisting of 5 rabbits, 1.0% and 0.5% ophthalmic solutions of amosulalol hydrochloride as well as physiological saline as a control were applied in one drop (0.05 ml) per time to the right eye of each rabbit alone, four times a day at a regular interval of 2.5 hours, for 28 days consecutively with the left eye being left untreated. (a) General conditions; Observation was made on the […] for general conditions once a week. (b) Body weight measurement; Body weight was measured once a week.

pupil diameter [5] = test: Test Example 2 (2): pupil diameter, pigmented rabbits; assay type: in vivo, pigmented rabbits (Dutch belted rabbits); details: 0.5% aqueous solution (FIG. 4), 0.5 to 6 hours
Protocol: Forty (40) male pigmented rabbits (Dutch belted rabbits) weighing about 2 kg, after having been confirmed to be free from ocular abnormalities, were bred in a breeding room maintained at a temperature of 24± 4° C. and at a relative humidity of 55± 15%, while they were fed solid food (Labo RG-RO, manufactured by Nihon Nohsan Kogyo K.K.) at a daily rate of 100 g per rabbit and allowed free access to tap water as drinking water. As a test drug, amosulalol hydrochloride was processed into 0.05%, 0.5% and 1.0% aqueous solutions which were used in the test, and 0.5% timolol maleate ophthalmic solution [Timoptol (registered trademark): Ban-yu Pharmaceutical Co.] and physiological saline were used as a positive control drug and a control substance, respectively. (2) Measurement of pupil diameter: With each of the rabbits as used under the above item (1), pupil diameter was measured for both eyes using a micrometer caliper, before instillation and 0.5, 1, 2, 3, 4, and 6 hours after topical application of the respective test drugs and physiological saline, respectively. […] The signs "a" and "c" designate physiological saline, 0.5% aqueous solution of amosulalol hydrochloride, respectively.

[6] = test system: Normal Intraocular Pressure; test: Test Example 2 (1): intraocular pressure reducing activity on normal intraocular pressure, pigmented rabbits; assay type: in vivo, pigmented rabbits (Dutch belted rabbits)
Protocol: Intraocular Pressure Reducing Activity of Amosulalol Hydrochloride on Normal Intraocular Pressure in Pigmented Rabbits Forty (40) male pigmented rabbits (Dutch belted rabbits) weighing about 2 kg, after having been confirmed to be free from ocular abnormalities, were bred in a breeding room maintained at a temperature of 24± 4° C. and at a relative humidity of 55± 15%, while they were fed solid food (Labo RG-RO, manufactured by Nihon Nohsan Kogyo K.K.) at a daily rate of 100 g per rabbit and allowed free access to tap water as drinking water. As a test drug, amosulalol hydrochloride was processed into 0.05%, 0.5% and 1.0% aqueous solutions which were used in the test, and 0.5% timolol maleate ophthalmic solution [Timoptol (registered trademark): Ban-yu Pharmaceutical Co.] and physiological saline were used as a positive control drug and a control substance, respectively. (1) Measurement of intraocular pressure: Forty (40) rabbits were divided into five groups. each consisting of 8 heads, and 50 μl of test drug as well as the control drug and physiological saline were applied topically to one eye each of the individual rabbits, with the other being left untreated. Before instillation and 0.5, 1, 2, 3, 4, 6 and 8 hours after topical application respectively, intraocular pressure for both eyes of each rabbit was measured using PTG. Time-course changes of intraocular pressure measurements taken with the eyes treated by instillation of each of the test drugs, control drug and physiological saline, are illustrated in FIGS. 2 (for treated eyes) and 3 (for non-treated eyes), respectively, with time (hour) after instillation taken as abscissa and intraocular pressure (mmHg) as ordinate; each value in mean ± S.E. (the number in each case is 8). The signs "a", "b", "c", "d" and "e" designate physiological saline, 0.05% aqueous solution of amosulalol hydrochloride, 0.5% aqueous solution of amosulalol hydrochloride, 1.0% aqueous solution of amosulalol hydrochloride and 0.5% solution of timolol maleate, respectively.

COc1ccccc1OCCNCC(O)c1ccc(C)c(S(N)(=O)=O)c1.Cl (stereo not drawn) [amosulalol hydrochloride, 5-[1-hydroxy-2-[2-(2-methoxyphenoxy)ethylamino]ethyl]-2-methylbenzenesulfonamide hydrochloride]
dissolution of crystals after freezing [1]: did not allow the crystals to dissolve | stability against heat and light [2]: stable | β-adrenergic blocking activity (β-adrenergic): exhibit both α-adrenergic and β-adrenergic blocking activities | change in pupil diameter (pupil diameter [3]): no significant change in the pupil diameter | α-adrenergic blocking activity (α-adrenergic): exhibit both α-adrenergic and β-adrenergic blocking activities | body weight measurement [4]: no abnormalities | general conditions [4]: no abnormalities | change in pupil diameter (pupil diameter [5]): no significant change in the pupil diameter | maximum drop in intraocular pressure ([6]; 0.05% aqueous solution, treated eyes, 2 hours after instillation): 3.6 mmHg | intraocular pressure reducing activity compared with 0.5% timolol maleate ophthalmic solution ([6]; 0.05%, normal eyes): more potent intraocular pressure reducing activity | maximum decrease in intraocular pressure ([6]; 0.5% aqueous solution, treated eyes, 2 hours after topical application): 6.2 mmHg | significant drop in intraocular pressure until (time after topical application) ([6]; 0.5% aqueous solution, treated eyes, from 30 min): 4 h | maximum decrease in intraocular pressure ([6]; 1.0% aqueous solution, treated eyes, 3 hours after instillation): 9.0 mmHg | decrease in intraocular pressure sustained until (time after instillation) ([6]; 1.0% aqueous solution, treated eyes, sustained from 30 min after instillation): 6 h | change in intraocular pressure of the other, non-treated eyes ([6]; non-treated eyes (FIG. 3)): no significant change
